Assay results: patent publication US5532259A, “Isoxazole-4-carboxamides and hydroxyalkylidenecyanoacetamides, pharmaceuticals containing these compounds and their use” (Hoechst Aktiengesellschaft, priority 1990, dated 1996)

Tests used:
[1] = test system: A20 2J mouse B cell tumor (BALB/c); assay: Cell proliferation test, A20 2J; type: cell-based; conditions: 72 h, read-out: ED50 (concentration at which a 50% inhibition occurs)
Method: (§1) The cell culture in vitro proliferation test was used as an activity test for chemotherapeutics.
(§2) Clicks/RPMI 1640 medium (50:50) containing L-glutamine without any NaHCO3, in the form of powder for 10 1 (Seromed, Biochrom, Berlin, FRG) is dissolved in 9 l of double-distilled water, and sterile filtered into 900 ml bottles.
(§3) 900 ml of base medium are buffered using 9.5 ml of 7.5% strength sodium hydrogencarbonate solution and 5 ml of HEPES (N-2-hydroxyethyl-piperazine-N-2 ethanesulfonic acid) (Gibco, Eggenstein, FRG).
(§4) 900 ml of base medium plus 19 ml of NaHCO3 solution (7.5%; 10 ml of HEPES solution and 10 ml of L-glutamine solution (200 mM)).
(§5) For keeping the tumor cells and hybridoma cells, working medium containing 5% FCS is prepared. […]
(§6) The proliferation test was carried out in round bottom microtiter plates. […] In all tests, the values were determined four times. […] The value of the negative control was subtracted from all values determined and the difference of positive control minus negative control was set at 100%.
(§7) The plates were incubated at 37° C./5% CO2 for 72 h and the proliferation rate was determined correspondingly as with the mitogen-induced lymphocyte proliferation. […]

[2] = test system: A431 human epidermoid carcinoma; assay: Cell proliferation test, A431; type: cell-based; conditions: A-431, 72 h, read-out: ED50 (concentration at which a 50% inhibition occurs)
Method: as §1, §2, §3, §4, §5, §6, §7

[3] = test system: K III 5 mouse T cell line (Th, IL-2); assay: Cell proliferation test, K III 5; type: cell-based; conditions: 72 h, read-out: ED50 (concentration at which a 50% inhibition occurs)
Method: as §1, §2, §3, §4, §5, §6, §7

[4] = test system: 7D4 rat hybridoma; assay: Cell proliferation test, 7D4; type: cell-based; conditions: 72 h, read-out: ED50 (concentration at which a 50% inhibition occurs)
Method: as §1, §2, §3, §4, §5, §6, §7

[5] = test system: Spleen T (con A and PWM); assay: Mitogen-induced lymphocyte proliferation, Spleen T; type: cell-based; conditions: Mus musculus, T-cell, 64 h, 48 h + 16 h with tritium thymidine, read-out: ED50 (concentration at which a 50% inhibition occurs)
Method: as §1, §2, §3, §4
(§8) Medium for mitogen-induced lymphocyte proliferation. Working medium containing 1% heat-inactivated (30 min, 56° C.) fetal calf serum (FCS) is prepared.
(§9) The mice are sacrificed by cervical dislocation and the spleens are removed under sterile conditions. The spleens are shredded on a sterile sieve having a mesh width of 80 "mesh" and are carefully transferred to a Petri dish containing working medium using the plunger of a plastic syringe (10 ml). […]
(§10) The group with mitogen additions and without preparation were defined as positive controls. […] The amount of radioactivity incorporated by these cells is measured in a beta counter (Packard, Tricarb 460c).

[6] = test system: HFF human foreskin fibroblast; assay: Cell proliferation test, HFF; type: cell-based; conditions: 72 h, read-out: ED50 (concentration at which a 50% inhibition occurs)
Method: as §1, §2, §3, §4, §5, §6, §7

[7] = Acute toxicity on oral administration, rat; conditions: in vivo, SD rat, 3 weeks, Litchfield and Wilcoxon
Method: (§11) Acute toxicity on oral administration
(§12) Compound 1 was administered orally to the mice or rats to determine the acute toxicity.
(§13) The LD50 values were determined according to Litchfield and Wilcoxon.
(§14) The weight of the NMRI mice (NMRI : Naval Medical Research Institute) is 20 to 25 g and that of the SD rats (SD: Sprague-Dawley) is 120 to 165 g. The mice were fasted for about 18 hours before the test. They are fed normally again 5 hours after administration of the substances tested. After 3 weeks, the animals were sacrificed by means of chloroform and dissected. 6 animals are used per dose.

[8] = test system: TRK 4 mouse B cell hybridoma; assay: Cell proliferation test, TRK 4; type: cell-based; conditions: 72 h, read-out: ED50 (concentration at which a 50% inhibition occurs)
Method: as §1, §2, §3, §4, §5, §6, §7

[9] = test system: PB-3C mouse mast cell line (IL-3); assay: Cell proliferation test, PB-3C; type: cell-based; conditions: 72 h, read-out: ED50 (concentration at which a 50% inhibition occurs)
Method: as §1, §2, §3, §4, §5, §6, §7

[10] = test system: DA-1 mouse tumor (IL-3); assay: Cell proliferation test, DA-1; type: cell-based; conditions: 72 h, read-out: ED50 (concentration at which a 50% inhibition occurs)
Method: as §1, §2, §3, §4, §5, §6, §7

[11] = test system: HL-60 human promyelomonocytic leukemia; assay: Cell proliferation test, HL-60; type: cell-based; conditions: 72 h, read-out: ED50 (concentration at which a 50% inhibition occurs)
Method: as §1, §2, §3, §4, §5, §6, §7

[12] = test system: Bone marrow mouse (M-CSF, GM CSF); assay: Cell proliferation test, bone marrow; type: cell-based; conditions: 72 h, read-out: ED50 (concentration at which a 50% inhibition occurs)
Method: as §1, §2, §3, §4, §5, §6, §7

[13] = test system: HT-2 mouse T cell line (IL-2); assay: Cell proliferation test, HT-2; type: cell-based; conditions: 72 h, read-out: ED50 (concentration at which a 50% inhibition occurs)
Method: as §1, §2, §3, §4, §5, §6, §7

[14] = test system: CTLL mouse T cell line (Tc clone IL-2); assay: Cell proliferation test, CTLL; type: cell-based; conditions: 72 h, read-out: ED50 (concentration at which a 50% inhibition occurs)
Method: as §1, §2, §3, §4, §5, §6, §7

[15] = test system: Cl 9/4 mouse T cell line (IL-4 dep.); assay: Cell proliferation test, Cl 9/4; type: cell-based; conditions: 72 h, read-out: ED50 (concentration at which a 50% inhibition occurs)
Method: as §1, §2, §3, §4, §5, §6, §7

[16] = test system: KB human epidermoid carcinoma; assay: Cell proliferation test, KB; type: cell-based; conditions: 72 h, read-out: ED50 (concentration at which a 50% inhibition occurs)
Method: as §1, §2, §3, §4, §5, §6, §7

[17] = test system: P 388 D1 mouse Mo tumor; assay: Cell proliferation test, P 388 D1; type: cell-based; conditions: P388D1, 72 h, read-out: ED50 (concentration at which a 50% inhibition occurs)
Method: as §1, §2, §3, §4, §5, §6, §7

[18] = test system: Spleen B (LPS); assay: Mitogen-induced lymphocyte proliferation, Spleen B; type: cell-based; conditions: Mus musculus, B-cell, 64 h, 48 h + 16 h with tritium thymidine, read-out: ED50 (concentration at which a 50% inhibition occurs)
Method: as §1, §2, §3, §4, §8, §9, §10

[19] = test system: WEHI 279 mouse B cell lymphoma; assay: Cell proliferation test, WEHI 279; type: cell-based; conditions: 72 h, read-out: ED50 (concentration at which a 50% inhibition occurs)
Method: as §1, §2, §3, §4, §5, §6, §7

[20] = test system: 7TD1 mouse B cell hybridoma (IL-6); assay: Cell proliferation test, 7TD1; type: cell-based; conditions: 72 h, read-out: ED50 (concentration at which a 50% inhibition occurs)
Method: as §1, §2, §3, §4, §5, §6, §7

[21] = Acute toxicity on oral administration, mouse; conditions: in vivo, NMRI mouse, 3 weeks, Litchfield and Wilcoxon
Method: as §11, §12, §13, §14

[22] = test system: CTL-J-K mouse T cell line (Tc, IL-2); assay: Cell proliferation test, CTL-J-K; type: cell-based; conditions: 72 h, read-out: ED50 (concentration at which a 50% inhibition occurs)
Method: as §1, §2, §3, §4, §5, §6, §7

[23] = test system: TRK 5 mouse B cell hybridoma; assay: Cell proliferation test, TRK 5; type: cell-based; conditions: 72 h, read-out: ED50 (concentration at which a 50% inhibition occurs)
Method: as §1, §2, §3, §4, §5, §6, §7

[24] = Acute toxicity after intraperitoneal administration, mouse; conditions: in vivo, ip, NMRI mouse, 3 weeks, Litchfield and Wilcoxon
Method: Acute toxicity after intraperitoneal administration
The acute toxicity after intraperitoneal administration of the test substances was carried out using NMRI mice (20 to 25 g) and SD rats (120 to 195 g). The test substance was suspended in a 1% strength sodium carboxymethyl cellulose solution. The various doses of the test substance were administered to the mice in a volume of 10 ml/kg of body weight and to the rats in a volume of 5 ml/kg of body weight. 10 animals were used per dose. After 3 weeks, the acute toxicity was determined according to the method of Litchfield and Wilcoxon.

Cc1oncc1C(=O)Nc1ccc(C(F)(F)F)cc1 [Compound 1, 5-methylisoxazole-4-carboxylic acid (4-trifluoromethyl)anilide]
IC50 [1]: 1000 to 3000 nM | IC50 [2]: 15 µM | IC50 [3]: 1000 to 3000 nM | IC50 [4]: ≤ 1000 nM | IC50 [5]: 10 µM | IC50 [6]: 40 µM | LD50 at 504 h [7]: 235 mg/kg | IC50 [8]: 5 µM | IC50 [9]: 20 µM | IC50 [10]: 5 µM | IC50 [11]: 25 µM | IC50 [12]: 5 µM | IC50 [13]: 40 to 50 µM | IC50 [14]: 40 to 50 µM | IC50 [15]: 25 µM | IC50 [16]: 15 µM | IC50 [17]: 10 µM | IC50 [18]: 10 µM | IC50 [19]: ≤ 1000 nM | IC50 [20]: 10 µM | LD50 at 504 h [21]: 445 mg/kg | IC50 [22]: 40 to 50 µM | IC50 [23]: 5 µM

C/C(O)=C(\C#N)C(=O)Nc1ccc(C(F)(F)F)cc1 [Compound 2, N-(4-trifluoromethylphenyl)-2-cyano-3-hydroxycrotonamide]
LD50 at 504 h [7]: 160 mg/kg | LD50 at 504 h [24]: 100 to 200 mg/kg
